# Test results taken from patent publication US11484543B2, “Compositions and methods for diagnosing and treating diseases and disorders associated with mutant KCNJ5” (The Rockefeller University, priority 2017, dated 2022).
# Numbering of substitutions follows the chain as printed.
# What was measured:
# Format in all cases: cell-based
# [1] = biological target: T1, KCNJ5^L168R (Homo sapiens, UniProt P48544, L168R); assay: Cell viability assay (ATP, CellTiter-Glo): rescue of KCNJ5^L168R-induced lethality in inducible HEK293 cells; details: for dose response on KCNJ5^L168R: tested at 1.1, 3.3 and 10 μM
# T1 construct: expressed in transfected cells
# T1 sequence (P48544 1-419 L168R): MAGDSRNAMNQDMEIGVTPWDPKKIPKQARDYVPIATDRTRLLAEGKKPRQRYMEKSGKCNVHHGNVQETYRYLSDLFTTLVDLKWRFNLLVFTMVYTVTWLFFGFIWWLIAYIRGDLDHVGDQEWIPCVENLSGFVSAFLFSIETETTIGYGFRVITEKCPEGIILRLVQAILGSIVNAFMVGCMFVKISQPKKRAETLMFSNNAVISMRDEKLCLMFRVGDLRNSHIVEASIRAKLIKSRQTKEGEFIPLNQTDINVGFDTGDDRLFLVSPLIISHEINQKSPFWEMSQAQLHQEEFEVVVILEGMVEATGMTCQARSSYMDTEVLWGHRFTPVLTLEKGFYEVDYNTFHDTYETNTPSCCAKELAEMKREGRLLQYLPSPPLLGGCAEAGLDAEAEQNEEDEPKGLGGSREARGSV
# Protocol: (§1) WT or mutant human KCNJ5 cDNAs (Choi et al., 2011, Science 331:768-772) were subcloned into the pcDNA5/FRT/TO vector using BamHI and HindIII. Single copies of WT or mutant human KCNJ5 cDNAs expressed under the control of tetracycline-inducible promoter were introduced into HEK293 cells using the Flp-in T-Rex System (Invitrogen) according to the manufacturer's instructions. Cells were grown in selective media containing 10% Tet-system approved FBS (Clontech) until induction.
# (§2) Assay plates were centrifuged and incubated overnight at 37° C. 20 nL was transferred from the compound source plate to the cell assay plate using an Aquarius (Tecan) with a 384-well pin tool (V&P Scientific). The final concentration of compound for screening was 10 μM and the final DMSO concentration was 0.1%. 1 μL of tetracycline (final concentration 1 μg/mL) was added to compound containing and negative control wells by Multidrop Combi to induce expression. 1 μL of media was added to positive control wells. Assay plates were centrifuged and incubated for 72 hours at 37° C., 5% CO2. CellTiter-Glo (Promega) was used to measure cell viability in the assay wells according to the manufacturer's instructions. 10 μL/well of CellTiter-Glo reagent was added to the assay plates using a MultiDrop Combi. The plates were shaken on a Thermomixer R (Eppendorf) at 1100 rpm for 1 minute and incubated in the dark for 10 minutes at room temperature. Luminescence was read on an Envision plate reader (PerkinElmer) with 0.3 second sampling time per well. Raw data (luminescence counts per second) was normalized to percent effect by the formula 100−(((sample−negative control mean)/(positive control mean−negative control mean))*100).
# (§3) Data was analyzed using the programs Excel (Microsoft) and Prism (GraphPad). Errors are SD unless otherwise indicated in the legend. Dose-response curves were fitted with a four-parameter logistic equation: F(x)=D+(A−D)/(1+(x/C)^B), with A=minimum inhibition B=Hill's slope C=inflection point D=maximum inhibition Synthesis of Macrolide Derivatives
# (§4) Cellular ATP levels were measured as a proxy for cell viability, using a commercially available luciferase assay (Crouch et al., 1993, Proc. Natl. Acad. Sci. U.S.A. 109:2533-2538).
# (§5) Conditions were designed to maximize reproducibility and the signal-to-background ratios (S/B) (Zhang et al., 1999, J. Biomol. Screen 4:67-73) comparing ATP level in uninduced and induced cells. Screening was performed in 384-well plates; compounds were added 24 hours after plating, and channel expression was induced immediately after compound addition. ATP levels were measured 72 hours after induction.
# [2] = biological target: T2, KCNJ5^WT (Homo sapiens, UniProt P48544); assay: Membrane potential assay (FLIPR dye) in inducible KCNJ5^WT HEK293 cells; details: 10-point dilution 20 to 0.0391 μM, N=3, four-parameter fit
# T2 construct: expressed in transfected cells
# T2 sequence (P48544 1-419): T1 sequence (P48544 1-419 L168R) with R168L
# Protocol: Single copies of WT or mutant human KCNJ5 cDNAs expressed under the control of tetracycline-inducible promoter were introduced into HEK293 cells using the Flp-in T-Rex System (Invitrogen) according to the manufacturer's instructions. Cells were grown in selective media containing 10% Tet-system approved FBS (Clontech) until induction.
# 20 μL of WT cells were plated into sterile black with clear bottom tissue culture-treated 384-well plates (Corning) at a density of 10000 cells/well using a Multidrop Combi. Assay plates were centrifuged at 500 rpm for 10 seconds and incubated overnight at 37° C. in a humidified 5% CO2 incubator. After the overnight incubation, 1 μL of tetracycline (final conc. 1 μg/mL) was added to all wells by Multidrop Combi to induce KCNJ5. Assay plates were centrifuged at 500 rpm for 10 seconds and incubated overnight at 37° C. in a humidified 5% CO2 incubator. The next day, 10 μL of medium was removed from each well using a PlateMate Plus (Thermo Scientific). 10 μL of Blue Formula FLIPR membrane potential dye (Molecular Devices) was added to cells using a Multichannel pipettor. Assay plates were incubated for 30 minutes. at 37° C. After incubation, 20 nL was transferred twice from the compound source plate to the cell assay plate using an Aquarius with a 384-well pin tool for a total transfer volume of 40 nL and a final DMSO concentration of 0.2%. 1 μL of 20 mM BaCl2 was added to positive control wells using a Multichannel pipettor. The assay plate was incubated 20 minutes at room temperature in the dark.
# Changes in membrane potential were detected using a well-established fluorescence-based measure of membrane potential (FIG. 4).
# [3] = biological target: T3, KCNJ5^G151R (Homo sapiens, UniProt P48544, G151R); assay: cell-based; details: for dose response on KCNJ5^G151R: tested at 1.1, 3.3 and 10 μM; for inhibition of KCNJ5^MUT (structure-activity statement): macrolide series, dilution curves
# T3 construct: expressed in transfected cells
# T3 sequence (P48544 1-419 G151R): T1 sequence (P48544 1-419 L168R) with G151R, R168L
# Protocol: as §1, §2, §3, §4, §5
# Levels of ATP in uninduced and induced cells without added test compound defined 100% and 0% effect, respectively, and served as a proxy for lethality.
# [4] = 10-point dilution 20 to 0.0391 μM, N=3, four-parameter fit
compound,measurement,setting,value
"CC[C@H]1OC(=O)[C@H](C)[C@@H](O[C@H]2C[C@@](C)(OC)[C@@H](O)[C@H](C)O2)[C@H](C)[C@@H](O[C@@H]2O[C@H](C)C[C@H](N(C)C)[C@H]2O)[C@@]2(C)C[C@@H](C)[C@@]3(O[C@@]1(C)[C@H](O)[C@H]3C)O2 [Anhydroerythromycin A, anhydroerythromycin A]",L168R IC50,[1]; [4],No fit
same,WT IC50,[2],No fit
same,G151R maximum inhibition,[3]; [4],60.00%
same,G151R minimum inhibition,[3]; [4],5.61%
same,IC50,[3]; [4],8.6 µM
CCN(CC)CCN1c2ccccc2Sc2ccc3ccccc3c21 [NSC18883],dose response on KCNJ5^L168R,[1],either high IC50 values or low maximum inhibition
same,dose response on KCNJ5^G151R,[3],potent inhibitors
"C1CCC(N=C(NC23CC4CC(CC(C4)C2)C3)N2CCOCC2)CC1.Cl [YU224116, U-37883A-HCl]",dose response on KCNJ5^L168R,[1],either high IC50 values or low maximum inhibition
same,% effect (1),"[3]; 10 μM, ATP level 72 h after induction, uninduced = 100%, induced = 0% effect, first of the two runs (primary screen / hit pick)",49.9%
same,% effect (2),"[3]; 10 μM, ATP level 72 h after induction, uninduced = 100%, induced = 0% effect, second of the two runs (primary screen / hit pick, confirmatory testing)",65.8%
same,mean % effect,"[3]; 10 μM, mean of primary screen and hit pick",57.9%
same,dose response on KCNJ5^G151R,[3],potent inhibitors
CC[C@H]1OC(=O)[C@H](C)[C@@H](O)[C@H](C)[C@@H](O[C@@H]2O[C@H](C)C[C@H](N(C)C)[C@H]2O)[C@](C)(O)C[C@@H](C)/C(=N\OCOCCOC)[C@H](C)[C@@H](O)[C@]1(C)O [decladinose roxithromycin],inhibition of KCNJ5^MUT (structure-activity statement),[3],loss of inhibition
CO[C@@H]1[C@@H](O[C@@H]2O[C@H](C)[C@@H](O[C@H]3C[C@@](C)(O)[C@@H](OC(=O)CC(C)C)[C@H](C)O3)[C@H](N(C)C)[C@H]2O)[C@@H](CC=O)C[C@@H](C)[C@@H](O)/C=C/C=C/C[C@@H](C)OC(=O)C[C@H]1OC(C)=O [josamycin],activity against KCNJ5^G151R in the primary screen,[3]; 10 μM,little or no activity
CO[C@@H]1[C@@H](O[C@@H]2O[C@H](C)[C@@H](O[C@H]3C[C@@](C)(O)[C@@H](OC(=O)CC(C)C)[C@H](C)O3)[C@H](N(C)C)[C@H]2O)[C@@H](CC=O)C[C@@H](C)[C@@H](O)/C=C/C=C/C[C@@H](C)OC(=O)C[C@H]1O [kitasamycin],activity against KCNJ5^G151R in the primary screen,[3]; 10 μM,little or no activity
C[C@@H]1C/C=C/C=C/C=C/C=C/[C@H](O[C@@H]2O[C@H](C)[C@@H](O)[C@H](N)[C@@H]2O)C[C@@H]2O[C@](O)(C[C@@H](O)C[C@H]3O[C@@H]3/C=C/C(=O)O1)C[C@H](O)[C@H]2C(=O)O [natamycin],activity against KCNJ5^G151R in the primary screen,[3]; 10 μM,little or no activity
CO[C@H]1C[C@H](O[C@H]2[C@H](C)[C@@H](O[C@@H]3O[C@H](C)C[C@H](N(C)C)[C@H]3O)[C@@H](C)C[C@@]3(CO3)C(=O)[C@H](C)[C@@H](O)[C@@H](C)[C@@H](C)OC(=O)[C@@H]2C)O[C@@H](C)[C@@H]1O [oleandomycin],activity against KCNJ5^G151R in the primary screen,[3]; 10 μM,little or no activity
CC[C@@H]1C=CC=CC[C@H](C)[C@@H](O)[C@@H](C)C(=O)[C@H](C)[C@@H](O)[C@H](C)C(=O)[C@H](C)[C@@H](O)[C@H](C)C=CC(=O)O[C@H]2[C@@H](C)[C@@H](CC1)O[C@@]1(CC[C@@H](C)[C@@H](C[C@H](C)O)O1)[C@@H]2C [oligomycin C],activity against KCNJ5^G151R in the primary screen,[3]; 10 μM,little or no activity
C=C1c2cccc(O)c2C(=O)C2=C(O)[C@]3(O)C(=O)C(C(N)=O)=C(O)[C@@H](N(C)C)[C@@H]3[C@@H](O)[C@H]12 [rondomycin],activity against KCNJ5^G151R in the primary screen,[3]; 10 μM,little or no activity
CC[C@H]1OC(=O)[C@H](C)C(=O)[C@H](C)[C@@H](O[C@@H]2O[C@H](C)C[C@H](N(C)C)[C@H]2O)[C@](C)(OC)C[C@@H](C)C(=O)[C@H](C)[C@H]2N(CCCCn3cnc(-c4cccnc4)c3)C(=O)O[C@]12C [telithromycin],inhibition of KCNJ5^MUT (structure-activity statement),[3],loss of inhibition
same,activity against KCNJ5^G151R in the primary screen,[3]; 10 μM,below activity threshold
CO[C@H]1C[C@H](O[C@H]2[C@H](C)[C@@H](O[C@@H]3O[C@H](C)C[C@H](N(C)C)[C@H]3OC(C)=O)[C@@H](C)C[C@@]3(CO3)C(=O)[C@H](C)[C@@H](OC(C)=O)[C@@H](C)[C@@H](C)OC(=O)[C@@H]2C)O[C@@H](C)[C@@H]1OC(C)=O [troleandomycin],activity against KCNJ5^G151R in the primary screen,[3]; 10 μM,little or no activity
spiramycin,activity against KCNJ5^G151R in the primary screen,[3]; 10 μM,little or no activity
